Source: patent publication US20250099420A1, “SMALL MOLECULE MODULATORS OF GPR139 COMPLEX” (University of Florida Research Foundation, Incorporated, priority 2022, published 2025)

What was measured:
parental HEK cells = experiment: HEK parental Antagonist Counterscreen Assay (non-transfected cells, acetylcholine control); assay type: cell-based; conditions: for EC50: Homo sapiens, HEK293, acetylcholine as control, scientific notation, molarity
Description: C. […] The HEK parental counterscreen utilized the same cells but not transfected with the plasmid. The agonist and antagonist modes were run the same way as the primary screen but acetylcholine was used in place of GPR139 agonist as the control compound.
The HEK parental counterscreen utilized the same cells but not transfected with the plasmid. The antagonist modes assays utilized the cells being plated in the 1536 well plate overnight in growth media prior to dye loading in PDL coated plates and acetylcholine was used in place of GPR139 agonist as the control compound.
(§1) The HEK parental counterscreen utilized the same cells but not transfected with the plasmid. Acetylcholine was used in place of GPR139 agonist as the control compound. The cells were plated overnight, similar to the HEK antagonist counterscreen protocol.
The HEK parental counterscreens utilized the same cells but not transfected with the plasmid. Acetylcholine was used in place of GPR139 agonist as the control compound. The cells were plated overnight, similar to the HEK antagonist counterscreen protocol.
(§2) For each test compound, percent activation was plotted against compound concentration. A four parameter equation describing a sigmoidal dose-response curve was then fitted with adjustable baseline using Assay Explorer software (Symyx Technologies Inc.).

GPR139 [1] = target: T1, GPR139 (Homo sapiens, UniProt Q6DWJ6); experiment: GPR139 Agonist titration / agonist counterscreen assay (calcium detection, HEK-GPR139 cells); assay type: cell-based; parameters: expressed in transfected cells; host or cells: HEK Aequorin cells, Maxcyte transient transfection; conditions: agonist counterscreen of the antagonists; for EC50: scientific notation, molarity, read-out: GRP139 Agonist activity EC50
T1 sequence (Q6DWJ6 1-353): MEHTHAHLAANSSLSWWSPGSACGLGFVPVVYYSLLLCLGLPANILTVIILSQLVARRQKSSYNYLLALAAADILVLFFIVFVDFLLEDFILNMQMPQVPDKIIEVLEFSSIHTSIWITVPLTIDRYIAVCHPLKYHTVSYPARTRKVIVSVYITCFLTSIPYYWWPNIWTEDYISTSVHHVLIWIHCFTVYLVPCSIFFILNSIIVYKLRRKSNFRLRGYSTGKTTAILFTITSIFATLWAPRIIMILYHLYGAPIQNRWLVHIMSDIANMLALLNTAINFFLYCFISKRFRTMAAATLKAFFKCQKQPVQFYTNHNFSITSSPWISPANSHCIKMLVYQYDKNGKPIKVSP
Description: GPR activity was assessed using a calcium detection assay. […] Negative control samples were treated with DMSO. […] Intracellular calcium was measured using Calcium 5.

GPR139 [2] = target: T1, GPR139; experiment: GPR139 Antagonist titration assay (calcium detection, HEK-GPR139 cells, vs EC80 of S-JNJ-63533054); conditions: for GPR139 Antagonist Activity Averaged Max % Response (±St. Dev.): activity relative to known control; for GPR139 Antagonist Activity Lipophilic Efficiency (logD): based on logD; for GPR139 Antagonist Activity Lipophilic Efficiency (logP): based on logP; for GPR139 Antagonist Activity Hill Slope: fitted dose-response curve
Description: GPR activity was assessed using a calcium detection assay. GPR139 agonists stimulate an increase in intracellular calcium in HEK-GPR139 cells. Agonists increase the release of intracellular calcium, while antagonists decrease the release of intracellular calcium, as compared to an EC80 stimulation of the know agonist S-JNJ-63533054. The positive control for the agonist mode was cells treated with EC100 of known agonist S-JNJ-63533054. Negative control samples were treated with DMSO. The antagonist high control in cells was EC80 of S-JNJ-63533054+IC100 S-JNJ-3792165, while cells were treated with EC80 of S-JNJ-63533054+DMSO for the low control. Intracellular calcium was measured using Calcium 5.
HEK cells were transfected the DNA encoding GPR139 and incubated for 24 hours. 3000 cells/well in 3 μL HEPES and 1% DMSO were seeded into 1536-well plates. 3 μL Calcium 5 was then added to each well and cells were incubated for 60 min. at 37° C. in 5% CO2 and 95% relative humidity. Cells were pretreated with 50 nL DMSO (5 min. at room temperature in the dark) to stabilize response and desensitize cells to DMSO. A 5 second basal read was recorded and compounds in 30 nL were added to the cells, followed by a 150 second read.
B. Antagonist Mode: The “High Control” represented wells containing cells with GPR139+Antagonist IC100+Agonist EC80. “Low Control” represented wells containing cells with GPR139 with EC100 Agonist. “0% control” and sample field represented wells containing cells with GPR139 with EC80 Agonist with DMSO or compounds. The Z′ and S:B for this assay were calculated using the High Control and Low Control wells.
as §1
The GPR139 Agonist and Antagonist titration assays employed the same reagents, protocols, and detection systems as the primary assays, but tested each as 10 point dose response starting at 676 nM concentration in triplicate with 1:3 dilutions. The HEK parental counterscreens utilized the same cells but not transfected with the plasmid. Acetylcholine was used in place of GPR139 agonist as the control compound. The cells were plated overnight, similar to the HEK antagonist counterscreen protocol.
as §2

SMILES	HEK antagonist activity Averaged Max % Response (±St. Dev.) (parental HEK cells)	EC50 (parental HEK cells) [µM]	GRP139 Agonist activity Averaged Max % Response (±St. Dev.) (GPR139 [1])	EC50 (GPR139 [1]) [µM]	EC50 (GPR139 [2]) [µM]	GPR139 Antagonist Activity Ligand Efficiency (GPR139 [2])	GPR139 Antagonist Activity Averaged Max % Response (±St. Dev.) (GPR139 [2]) [%]	GPR139 Antagonist Activity Lipophilic Efficiency (logD) (GPR139 [2])	GPR139 Antagonist Activity Lipophilic Efficiency (logP) (GPR139 [2])	GPR139 Antagonist Activity Hill Slope (GPR139 [2])	GRP139 Agonist activity Hill Slope (GPR139 [1])
O=C(CCC(=O)OCc1ccc(Br)cc1)Nc1ccc(F)cc1 [SR-01000259336]	26.21 ± 5.54%	> 14.1	6.87 ± 7.17%	> 14.1	3.7	0.33	90.45 ± 2.75	1.62	1.62	1.05	
N#CCC(=O)c1ccccc1Oc1ccc(F)cc1 [SR-01000308363]	14.98 ± 11.31%	> 14.3	25.24 ± 7.47%	> 14.3	5.9	0.39	70.81 ± 7.08	2.11	2.11	1.05	
COc1cc(C(=O)Nc2ccc(N3C(=O)c4ccc(Cl)cc4C3=O)c(C)c2)cc(OC)c1OC [SR-01000419723]	25.06 ± 17.50%	> 10.6	3.98 ± 7.81%	> 10.6	2.1	0.23	82.63 ± 2.69	1.36	1.36	0.63	
CC(=O)N1N=C(c2ccc(C)cc2)CC1c1ccccc1F (centres unmarked) [SR-01000429850]	−3.2E+0 ± 5.20 ^ %	> 15.5	4.88 ± 6.79%			0.31	48.35 ± 1.75	1.00	1.00		
O=C(Nn1c(-c2cccc(Cl)c2)nc2ccccc2c1=O)c1cc(Br)ccc1Cl [SR-01000433654]	23.11 ± 4.71%	> 10.9	7.71 ± 3.46%	> 10.9	7	0.25	82.91 ± 7.41	−712.7E−3	−712.7E−3	0.97	
O=c1c(-c2ccc(Cl)cc2)c(C(F)(F)F)oc2cc(O)ccc12 [SR-01000438114]	104.21 ± 5.67%	4.2	68.19 ± 17.63%	9.1	0.98	0.37	82.02 ± 2.67	2.55	1.57	1.59	1.01
Cc1ccc(Oc2ccc(OCC(=O)N3C(C)CCCC3C)cc2)cc1 (centres unmarked) [SR-01000445554]	26.51 ± 5.44%	> 13.6	28.29 ± 7.43%	> 13.6	> 4.5	0.29	80.54 ± 5.09	0.71	0.71		
CCCc1sc(N2CCN(C(=O)c3ccccc3)CC2)nc1-c1ccccc1 [SR-01000451510]	16.06 ± 4.81%	> 11.7	−9.5E+0 ± 9.17 ^ %	> 11.7	8.8	0.25	57.55 ± 8.35	−866.9E−3	−866.9E−3	1.89	
O=C(NCCC1CCCCC1)N1c2ccccc2Sc2ccccc21 [SR-01000452455]	0.92 ± 5.75%	> 12.5	15.11 ± 5.37%	> 12.5	3.6	0.32	87.35 ± 5.76	0.49	0.49	1.28	
COc1cccc(OC)c1C(=O)Oc1ccc2c(=O)c(-c3ccc(Cl)cc3)c(C(F)(F)F)oc2c1 [SR-01000471218]	69.47 ± 1.93%	10.1	19.55 ± 6.15%	> 10.5	1.1	0.24	90.79 ± 3.84	−130.5E−3	−130.5E−3	1.41	
CCn1cc(Cl)c(C(=O)OCC23CCC4c5ccccc5OC(C)(CC2C)C4C3C)n1 (centres unmarked) [SR-01000479575]	11.60 ± 7.12%	> 7.6	−2.2E+0 ± 2.25 ^ %			0.24	58.09 ± 4.56	0.55	0.55	2.37	
Cc1cc(C(F)(F)F)nc(SCC(=O)Nc2cccc(C(F)(F)F)c2)c1C#N [SR-01000507831]	11.97 ± 1.54%	> 13.9	2.74 ± 8.83%	> 13.9	> 13.9	0.24	49.37 ± 5.06	−233.9E−3	−233.9E−3		
CCCCCCOC(=S)SCC(=O)Nc1ccccc1 [SR-01000508699]	23.85 ± 9.06%	> 12	25.84 ± 3.55%	> 12	2.7	0.39	85.61 ± 2.70	0.57	0.57	1.30	
Cc1cc(C)c(NC(=O)c2ccc(Br)cc2)c(C)c1NC(=O)c1ccc(Br)cc1 [SR-01000512383]	33.99 ± 7.44%	> 8.9	6.60 ± 4.93%	> 8.9	2.2	0.27	58.56 ± 7.31	−1.6E+0	−1.6E+0	1.46	
